# Residues, ends and D or L forms follow the SMILES beside them. *: point of attachment. Farnesyl = CC(C)=CCC/C(C)=C/CC/C(C)=C/C*; Boc = CC(C)(C)OC(=O)*; CHN2 = [N-]=[N+]=C*
# Columns and labels:
# [1] = test system: Nalm-6 (B-lineage ALL); test: MTT cytotoxicity assay, Nalm-6; assay type: cell-based; details: Homo sapiens, 24-36 hours at 37° C., 0.1 to 250 μM
# Protocol: (§1) Cytotoxicity of various compounds against tumor cells was performed using the MTT (3-[4,5-[…]]-2,5-diphenyl tetrazolium bromide) assay (Boehringer Mannheim Corp., Indianapolis, Ind.). Unless otherwise specified, all cell lines were obtained from the American Type Culture Collection (ATCC). Briefly, exponentially growing cells were seeded into a 96-well plate at a density of 2.5×10^4 cells/well and incubated for 36 hours at 37° C. prior to drug exposure. On the day of treatment, culture medium was carefully aspirated from the wells and replaced with fresh medium containing the indicated compound at concentrations ranging from 0.1 to 250 μM. Triplicate wells were used for each treatment.
# (§2) Human leukemic cell lines (NALM-6, MOLT-3) glioblastoma cells (U373) and human breast tumor cell lines (BT20 and MDA-MB-231) were obtained from the American Type Culture Collection and maintained as a continuous cell line in Dulbecco's modified Eagles's medium supplemented with 10% fetal bovine serum and antibiotics.
# (§3) The cells were incubated with the various compounds for 24-36 hours at 37° C. in a humidified 5% CO2 atmosphere. To each well, 10 μl of MTT (0.5 mg/ml final concentration) was added and the plates were incubated at 37° C. for 4 hours to allow MTT to form formazan crystals by reacting with metabolically active cells. The formazan crystals were solubilized overnight at 37° C. in a solution containing 10% SDS in 0.01 M HCl. The absorbence of each well was measured in a microplate reader (Labsystems) at 540 nm and a reference wavelength of […]. To translate the OD540 values into the number of live cells in each well, the OD540 values were compared to those on standard OD540 --versus--cell number curves generated for each cell line. The percent survival was calculated using the formula: [formula]
# (§4) The IC50 values were calculated by non-linear regression analysis and are shown below in Tables 1-6.
# [2] = test system: Molt-3 (T-lineage ALL); test: MTT cytotoxicity assay, Molt-3; assay type: cell-based, human; details: Homo sapiens, MOLT-3, MTT, 24-36 hours at 37° C., 0.1 to 250 μM
# Protocol: as §1, §2, §3, §4
# [3] = test system: BT-20 (breast cancer); test: MTT cytotoxicity assay, BT-20; assay type: cell-based; details: Homo sapiens, 24-36 hours at 37° C., 0.1 to 250 μM
# Protocol: as §1, §2, §3, §4
# [4] = test system: PC-3 (prostate cancer); test: MTT cytotoxicity assay, PC-3; assay type: cell-based; details: 24-36 hours at 37° C., 0.1 to 250 μM
# Protocol: as §1, §3, §4
# [5] = test system: U-373 (glioblastoma); test: MTT cytotoxicity assay, U-373; assay type: cell-based; details: Homo sapiens, U373 MG, 24-36 hours at 37° C., 0.1 to 250 μM
# Protocol: as §1, §2, §3, §4
Structure (SMILES),IC50 [1] [µM],IC50 [2] [µM],IC50 [3] [µM],IC50 [4] [µM],IC50 [5] [µM]
"CC(=O)N[C@@H](CSC/C=C(\C)CC/C=C(\C)CCC=C(C)C)C(=O)C=[N+]=[N-] [HI-367, N-Ac-S-trans-trans-farnesyl-Cys diazomethyl ketone]",30.3,32.2,> 100,> 100,> 100
"CC(=O)N[C@@H](CSC/C=C(\C)CC/C=C(\C)CCC=C(C)C)C(=O)CCl [HI-368, N-Ac-S-trans-trans-farnesyl-Cys chloromethyl ketone]",3,1.4,55.8,26.8,61.3
"CC(=O)N[C@@H](CSC(=O)OCc1ccccc1)C(=O)CCl [HI-389, N-Ac-S-benzyloxycarbonyl-cysteine chloromethyl ketone]",1.2,3.5,49.3,23.4,54.4
"CC(=O)N[C@@H](CSCc1ccc2ccccc2c1)C(=O)CCl [HI-392, N-Ac-S-2-naphthylmethyl-cysteine chloromethyl ketone]",2.6,2.9,40.4,36.6,41.8
"CCCCCCCCCCCCSC[C@H](NC(=O)OCC1c2ccccc2-c2ccccc21)C(=O)CCl [HI-398, N-9-Fluorenylmethyloxycarbonyl-S-dodecyl-cysteine chloromethyl ketone]",25.7,32.3,> 100,> 100,> 100
CCCCCCCCCCCCSC[C@H](NC(C)=O)C(=O)CSc1c(F)c(F)c(F)c(F)c1F [HI-399],91.2,40.8,> 100,91.6,> 100
"CC(C)=CCC/C(C)=C/CC/C(C)=C/CSC[C@H](NC(=O)CNC(=O)OC(C)(C)C)C(=O)C=[N+]=[N-] [HI-401, N-Boc-Gly-S-trans-trans-farnesyl-Cys diazomethyl ketone] (Boc-Gly-Cys(Farnesyl)-CHN2)",51.3,84.5,95.1,90.6,> 100
"C=CCSC[C@H](NC(C)=O)C(=O)CCl [HI-419, N-Ac-S-allyl-cysteine chloromethyl ketone]",4.3,7.3,55.7,> 100,56.7
"CCCCCCCCCCCCSC[C@H](NC(C)=O)C(=O)CBr [HI-488, N-Ac-S-dodecyl-cysteine bromomethyl ketone]",1.3,3.19,33.8,39.6,22.5
"CCCCCCCCCCCCOC[C@H](NC(C)=O)C(=O)CCl [HI-489, N-Ac-O-dodecyl-serine chloromethyl ketone]",3.8,15.3,> 100,> 100,> 100
"CCCCCCCCCCCCSC[C@H](NC(=O)C(F)(F)F)C(=O)CCl [HI-490, N-Trifluoroacetyl-S-dodecyl-cysteine chloromethyl ketone]",32.6,41.3,> 100,> 100,> 100
"CCCCCCCCCCCCSC[C@H](NC(=O)c1ccccc1)C(=O)CCl [HI-491, N-Benzoyl-S-dodecyl-cysteine chloromethyl ketone]",5.4,6.5,> 100,52.1,> 100

# From patent publication US6251882A, “Alkyl ketones as potent anti-cancer agents” (Parker Hughes Institute, priority 1999, dated 2001)
